Experimental data taken from ChEMBL document CHEMBL1201862, “PubChem BioAssay data set” (2004).
Calls of active or inactive are those of the source.

Tests used:
[1] = molecular target: T1, Short transient receptor potential channel 4 (Mus musculus, UniProt Q9QUQ5); test: mouse TRPC4 channel activators, dose response, cell-based, HEK293 TRPC4/mu-opioid, Fluo-4 calcium (AID 434937); type: functional
T1 sequence (Q9QUQ5 whole entry): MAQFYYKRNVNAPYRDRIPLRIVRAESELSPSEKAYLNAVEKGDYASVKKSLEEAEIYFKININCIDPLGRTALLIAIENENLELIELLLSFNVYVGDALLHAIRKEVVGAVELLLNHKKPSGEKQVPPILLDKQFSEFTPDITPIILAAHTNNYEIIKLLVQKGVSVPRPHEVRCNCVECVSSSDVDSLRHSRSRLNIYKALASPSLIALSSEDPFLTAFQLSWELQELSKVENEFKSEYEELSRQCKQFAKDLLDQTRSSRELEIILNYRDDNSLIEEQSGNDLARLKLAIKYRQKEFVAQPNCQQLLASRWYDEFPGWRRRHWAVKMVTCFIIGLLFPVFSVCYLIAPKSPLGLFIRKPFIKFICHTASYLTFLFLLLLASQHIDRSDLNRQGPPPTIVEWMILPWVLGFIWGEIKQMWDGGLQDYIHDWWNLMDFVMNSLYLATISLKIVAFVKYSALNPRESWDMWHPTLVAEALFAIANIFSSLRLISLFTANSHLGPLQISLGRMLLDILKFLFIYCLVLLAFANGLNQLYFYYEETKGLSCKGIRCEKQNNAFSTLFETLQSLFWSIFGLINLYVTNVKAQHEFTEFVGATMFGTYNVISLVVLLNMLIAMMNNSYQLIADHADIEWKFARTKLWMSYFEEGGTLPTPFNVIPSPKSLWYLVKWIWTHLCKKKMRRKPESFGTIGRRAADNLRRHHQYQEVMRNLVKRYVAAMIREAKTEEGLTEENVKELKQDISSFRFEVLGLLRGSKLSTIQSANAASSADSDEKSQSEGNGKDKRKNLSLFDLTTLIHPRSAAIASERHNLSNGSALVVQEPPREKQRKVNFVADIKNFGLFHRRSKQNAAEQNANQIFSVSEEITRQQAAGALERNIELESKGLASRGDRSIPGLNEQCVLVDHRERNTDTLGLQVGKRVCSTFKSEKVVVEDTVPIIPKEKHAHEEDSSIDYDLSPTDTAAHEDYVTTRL

[2] = molecular target: T1, Short transient receptor potential channel 4; test: mouse TRPC4 channel inhibitors, dose response, cell-based, HEK293 TRPC4/mu-opioid, Fluo-4 calcium (AID 434942); type: functional;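 note: potency of inhibitors blocking the TRPC4 calcium response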
[3] = molecular target: T2, Zinc finger protein mex-5 (Caenorhabditis elegans, UniProt Q9XUB2); test: MEX-5/TCR-2 RNA interaction inhibitors, dose response, biochemical, C. elegans, fluorescence polarization (AID 1960)
T2 sequence (Q9XUB2 whole entry): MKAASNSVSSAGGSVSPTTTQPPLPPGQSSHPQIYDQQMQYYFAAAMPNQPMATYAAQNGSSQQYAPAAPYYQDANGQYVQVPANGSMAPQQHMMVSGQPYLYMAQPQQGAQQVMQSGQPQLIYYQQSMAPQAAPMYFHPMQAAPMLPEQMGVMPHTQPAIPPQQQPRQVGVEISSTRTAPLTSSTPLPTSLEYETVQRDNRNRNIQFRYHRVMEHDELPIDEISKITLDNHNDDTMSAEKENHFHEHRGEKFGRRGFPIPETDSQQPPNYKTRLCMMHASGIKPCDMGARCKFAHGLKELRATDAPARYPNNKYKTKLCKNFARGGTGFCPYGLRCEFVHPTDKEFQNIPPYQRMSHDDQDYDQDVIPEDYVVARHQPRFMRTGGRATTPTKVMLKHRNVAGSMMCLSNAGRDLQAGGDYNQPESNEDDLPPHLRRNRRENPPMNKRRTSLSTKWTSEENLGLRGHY

[4] = molecular target: G-protein coupled receptor 35 (Homo sapiens, UniProt Q9HC97); test: GPR35 antagonists blocking zaprinast-driven arrestin recruitment, primary screen, imaging, U2OS, beta-arrestin-GFP, zaprinast agonist (AID 2058); type: functional;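 note: antagonist potency meaning inhibition of agonist-induced arrestin redistribution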
[5] = growth suppression of PTEN-null colon cells, dose response, cell-based, HCT116 PTEN knockout (AID 1047); type: functional;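 note: HCT116 colon tumor cells with PTEN knocked out; cells exposed to compound for 60 hours before readout; potency for loss of cell viability measured by luminescence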
[6] = molecular target: T3, RNA-binding protein pos-1 (Caenorhabditis elegans, UniProt G5EF15); test: inhibitors of POS-1/mex-3 RNA binding, dose response, biochemical, fluorescence polarization (AID 1964);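 note: purified POS-1 fused to maltose binding protein made in E. coli; potency of compounds blocking POS-1 binding to fluorescent RNA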
T3 sequence (G5EF15 whole entry): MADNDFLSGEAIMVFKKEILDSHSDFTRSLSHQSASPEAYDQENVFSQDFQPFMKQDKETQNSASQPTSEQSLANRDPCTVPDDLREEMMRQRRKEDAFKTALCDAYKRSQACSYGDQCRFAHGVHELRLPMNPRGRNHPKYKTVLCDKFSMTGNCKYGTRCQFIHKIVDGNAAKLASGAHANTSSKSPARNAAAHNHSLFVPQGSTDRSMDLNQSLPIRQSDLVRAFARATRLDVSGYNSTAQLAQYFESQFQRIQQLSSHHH

[7] = molecular target: Voltage-dependent T-type calcium channel subunit alpha-1H (Homo sapiens, UniProt O95180); type: functional;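 note: channel activity triggered by adding a high calcium stimulation buffer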
[8] = growth suppression of beta-catenin-knockout colon cells, dose response, cell-based, HCT116, human colon tumor (AID 1045); type: functional;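 note: HCT116 colon tumor cells with beta catenin knocked out; cells exposed to compound for 60 hours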
Nonstructural protein 1 = Nonstructural protein 1 (Influenza A virus, UniProt Q194T2); type: functional, Influenza A virus (A/California/07/2009(H1N1))
Hexokinase = molecular target: T4, Hexokinase (Trypanosoma brucei, UniProt Q38C41); test: Confirmation assay for inhibitors of Trypanosoma brucei hexokinase 1-Analogue-first series. [Related pubchem assays (depositor defined):AID1430, AID1632, AID2516, AID2560, AID2579, AID2600, AID449725, AID492951]; type: functional
T4 sequence (Q38C41 whole entry): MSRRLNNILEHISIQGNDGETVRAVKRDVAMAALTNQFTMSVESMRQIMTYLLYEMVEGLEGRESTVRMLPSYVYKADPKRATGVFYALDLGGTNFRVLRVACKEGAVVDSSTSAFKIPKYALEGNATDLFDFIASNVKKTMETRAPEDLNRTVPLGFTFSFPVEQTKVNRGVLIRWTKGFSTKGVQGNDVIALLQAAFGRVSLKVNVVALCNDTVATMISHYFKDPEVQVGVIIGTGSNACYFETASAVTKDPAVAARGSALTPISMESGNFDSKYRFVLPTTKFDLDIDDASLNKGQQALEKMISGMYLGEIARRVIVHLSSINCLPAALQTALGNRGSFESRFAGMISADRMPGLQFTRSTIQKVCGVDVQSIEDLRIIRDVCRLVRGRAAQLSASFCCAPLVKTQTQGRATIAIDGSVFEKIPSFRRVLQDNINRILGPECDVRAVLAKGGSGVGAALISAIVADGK

[9] = molecular target: T5, Endoribonuclease toxin MazF (Escherichia coli K-12, UniProt P0AE70); test: fluorescent RNA oligo signal without MazF, dose response, counter-screen for MazEF activator project, biochemical, fluorescence, single-stranded RNase substrate (AID 588502); type: functional
T5 sequence (P0AE70 whole entry): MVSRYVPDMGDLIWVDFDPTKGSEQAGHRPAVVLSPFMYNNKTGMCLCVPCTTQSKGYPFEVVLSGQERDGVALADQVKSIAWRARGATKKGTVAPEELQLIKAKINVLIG

[10] = molecular target: T5, Endoribonuclease toxin MazF; test: MazF toxin RNase activators, dose response, biochemical, fluorescence, single-stranded RNA substrate, uHTS hits (AID 588481); type: functional
[11] = molecular target: T6, Corticotropin-releasing factor receptor 2/Corticotropin-releasing factor-binding protein (Homo sapiens, UniProt P24387+Q13324); test: activators of CRF receptor 2 with binding protein – uHTS hits, confirmation (AID 602473); type: functional; conditions: read-out: EC50_Mean
T6 sequence (Q13324 whole entry): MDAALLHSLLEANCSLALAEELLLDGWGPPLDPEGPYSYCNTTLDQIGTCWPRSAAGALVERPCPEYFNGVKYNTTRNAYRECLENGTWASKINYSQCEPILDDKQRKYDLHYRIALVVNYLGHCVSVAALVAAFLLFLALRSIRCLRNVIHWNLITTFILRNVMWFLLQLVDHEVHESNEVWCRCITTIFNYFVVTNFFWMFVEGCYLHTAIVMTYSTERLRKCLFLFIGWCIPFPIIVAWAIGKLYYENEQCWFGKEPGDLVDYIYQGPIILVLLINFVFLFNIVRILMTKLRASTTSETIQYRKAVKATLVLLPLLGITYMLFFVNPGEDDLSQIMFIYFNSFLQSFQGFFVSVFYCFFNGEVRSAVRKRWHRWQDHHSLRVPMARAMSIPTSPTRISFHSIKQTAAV
T6 sequence (P24387 whole entry): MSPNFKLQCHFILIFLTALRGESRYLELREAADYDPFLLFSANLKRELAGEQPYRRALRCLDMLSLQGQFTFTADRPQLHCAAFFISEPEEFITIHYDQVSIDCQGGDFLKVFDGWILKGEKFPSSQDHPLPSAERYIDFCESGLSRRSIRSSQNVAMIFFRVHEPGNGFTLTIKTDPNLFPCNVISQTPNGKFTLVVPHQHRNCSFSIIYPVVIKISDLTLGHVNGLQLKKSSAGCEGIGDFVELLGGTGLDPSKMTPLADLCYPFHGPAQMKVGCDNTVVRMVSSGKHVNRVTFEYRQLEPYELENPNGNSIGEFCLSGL

Chain of Voltage-dependent T-type calcium channel subunit alpha-1H (O95180 whole entry): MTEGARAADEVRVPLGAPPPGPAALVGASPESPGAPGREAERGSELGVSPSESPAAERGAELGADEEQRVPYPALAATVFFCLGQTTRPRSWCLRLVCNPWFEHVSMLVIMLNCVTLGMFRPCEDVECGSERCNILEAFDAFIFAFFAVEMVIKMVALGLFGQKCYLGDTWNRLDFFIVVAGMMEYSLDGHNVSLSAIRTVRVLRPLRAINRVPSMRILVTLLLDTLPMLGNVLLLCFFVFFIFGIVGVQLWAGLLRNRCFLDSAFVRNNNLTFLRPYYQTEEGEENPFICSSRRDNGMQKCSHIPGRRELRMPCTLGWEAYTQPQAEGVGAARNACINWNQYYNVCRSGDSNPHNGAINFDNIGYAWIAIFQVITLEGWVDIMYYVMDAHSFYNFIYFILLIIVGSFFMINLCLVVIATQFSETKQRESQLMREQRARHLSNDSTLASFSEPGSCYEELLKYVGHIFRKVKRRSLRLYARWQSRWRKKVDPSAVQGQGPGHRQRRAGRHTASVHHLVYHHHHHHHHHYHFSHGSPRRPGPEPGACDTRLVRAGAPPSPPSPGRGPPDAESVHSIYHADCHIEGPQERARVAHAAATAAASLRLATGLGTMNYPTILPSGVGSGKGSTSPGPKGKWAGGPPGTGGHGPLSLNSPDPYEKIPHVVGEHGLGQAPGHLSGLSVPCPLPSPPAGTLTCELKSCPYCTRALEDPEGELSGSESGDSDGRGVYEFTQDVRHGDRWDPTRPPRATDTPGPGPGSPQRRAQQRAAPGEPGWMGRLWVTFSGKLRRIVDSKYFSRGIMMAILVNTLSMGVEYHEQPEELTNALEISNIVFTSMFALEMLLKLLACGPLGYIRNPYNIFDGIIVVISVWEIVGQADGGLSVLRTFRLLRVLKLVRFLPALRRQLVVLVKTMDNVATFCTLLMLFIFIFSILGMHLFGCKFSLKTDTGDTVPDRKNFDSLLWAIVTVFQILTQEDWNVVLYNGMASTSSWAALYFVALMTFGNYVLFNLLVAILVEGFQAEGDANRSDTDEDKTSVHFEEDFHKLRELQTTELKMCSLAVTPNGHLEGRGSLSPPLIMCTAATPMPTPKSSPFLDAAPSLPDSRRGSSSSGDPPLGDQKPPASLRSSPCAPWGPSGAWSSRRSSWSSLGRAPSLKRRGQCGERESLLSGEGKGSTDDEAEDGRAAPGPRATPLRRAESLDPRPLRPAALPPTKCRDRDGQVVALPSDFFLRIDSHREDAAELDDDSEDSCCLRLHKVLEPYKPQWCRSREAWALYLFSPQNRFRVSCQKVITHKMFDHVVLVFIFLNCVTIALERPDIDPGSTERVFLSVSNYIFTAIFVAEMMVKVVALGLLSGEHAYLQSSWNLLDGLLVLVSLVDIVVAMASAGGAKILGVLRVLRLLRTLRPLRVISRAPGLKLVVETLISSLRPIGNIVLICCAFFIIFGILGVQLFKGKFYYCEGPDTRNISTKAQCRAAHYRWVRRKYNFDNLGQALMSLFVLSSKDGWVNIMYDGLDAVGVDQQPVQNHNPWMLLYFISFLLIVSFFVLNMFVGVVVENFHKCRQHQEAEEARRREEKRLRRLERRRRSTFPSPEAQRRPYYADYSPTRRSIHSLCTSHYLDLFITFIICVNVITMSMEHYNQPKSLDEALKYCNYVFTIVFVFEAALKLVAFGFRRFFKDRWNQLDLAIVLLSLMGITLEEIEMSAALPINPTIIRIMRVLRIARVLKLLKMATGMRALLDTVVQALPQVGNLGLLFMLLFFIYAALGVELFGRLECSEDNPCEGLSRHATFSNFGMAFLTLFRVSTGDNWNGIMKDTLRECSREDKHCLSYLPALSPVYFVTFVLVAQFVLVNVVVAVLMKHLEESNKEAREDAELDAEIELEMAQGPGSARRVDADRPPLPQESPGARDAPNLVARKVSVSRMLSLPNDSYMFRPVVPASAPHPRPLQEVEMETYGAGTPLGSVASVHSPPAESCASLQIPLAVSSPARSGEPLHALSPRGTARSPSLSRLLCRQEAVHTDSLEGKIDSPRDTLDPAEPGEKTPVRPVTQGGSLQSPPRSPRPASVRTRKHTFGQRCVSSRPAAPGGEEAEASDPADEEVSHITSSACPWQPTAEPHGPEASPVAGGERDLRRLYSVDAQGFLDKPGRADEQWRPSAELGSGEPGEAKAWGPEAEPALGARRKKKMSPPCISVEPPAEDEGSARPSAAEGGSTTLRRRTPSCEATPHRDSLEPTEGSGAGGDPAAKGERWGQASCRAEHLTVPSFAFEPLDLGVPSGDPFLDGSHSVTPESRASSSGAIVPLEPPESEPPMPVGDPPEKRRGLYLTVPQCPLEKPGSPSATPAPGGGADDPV
Chain of G-protein coupled receptor 35 (Q9HC97 whole entry): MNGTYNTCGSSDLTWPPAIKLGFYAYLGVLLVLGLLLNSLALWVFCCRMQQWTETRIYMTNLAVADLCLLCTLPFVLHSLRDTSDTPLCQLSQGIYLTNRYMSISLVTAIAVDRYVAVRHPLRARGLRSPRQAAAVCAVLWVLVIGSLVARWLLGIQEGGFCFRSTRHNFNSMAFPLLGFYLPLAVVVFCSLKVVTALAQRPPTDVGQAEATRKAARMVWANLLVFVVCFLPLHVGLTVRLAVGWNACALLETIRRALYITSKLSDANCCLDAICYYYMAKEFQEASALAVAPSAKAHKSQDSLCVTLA
Chain of Nonstructural protein 1 (Q194T2 whole entry): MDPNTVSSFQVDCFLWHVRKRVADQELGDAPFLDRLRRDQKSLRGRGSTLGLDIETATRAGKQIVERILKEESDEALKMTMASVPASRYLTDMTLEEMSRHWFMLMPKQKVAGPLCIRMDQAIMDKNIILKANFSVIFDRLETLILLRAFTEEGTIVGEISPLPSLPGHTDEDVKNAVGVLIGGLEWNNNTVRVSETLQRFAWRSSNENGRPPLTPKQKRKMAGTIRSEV

Which results are given for `Cc1ccc(S(=O)(=O)Nc2cccc(C(=O)NCC(c3ccco3)N3CCCC3)c2)cc1F` (stereo not drawn)?
EC50 [1]: 1.5 µM (active); EC50 [2]: 0.149 µM (active)

Which results are given for `CCN(CC)c1ccc(/C=C(/C#N)c2nc3ccccc3[nH]2)c(OC(C)C)c1`?
EC50 [3]: 8.13 µM (active); IC50 [4]: 1.19 µM (active); EC50 [5]: 11.2 µM (active); EC50 [6]: 3.96 µM (active); EC50 [7]: 3.84 µM (active); EC50 [8]: 11.1 µM (active)

For `O=C(c1cccc(C(=O)N2CCN(c3ccccc3)CC2)c1)N1CCN(c2ccccc2)CC1`, which EC50 [2] is on record?
Its EC50 is 1.06 µM (active).

With `Cc1ccccc1NC(=O)c1sc2nc3c(c(-c4ccco4)c2c1N)CCCC3` as the molecule, how does the EC50 [7] read?
The EC50 was 10.1 µM (active).

Which IC50 (Nonstructural protein 1) does the source give for `CN(C)c1ccc(NC(=O)CC(NCc2ccccn2)C(=O)O)cc1` (stereo not drawn) here?
Its IC50 is 1.51 µM (active).

For `COc1ccc(NC(=O)c2ccccc2C(=O)O)cc1`, which IC50 (Hexokinase) is on record?
The IC50 was > 25 µM (inactive).

For `COc1ccc(C(=O)Nc2cc(-c3ccccc3)ccc2C(=O)O)cc1`, which IC50 (Hexokinase) is on record?
Its IC50 is > 25 µM (inactive).

With `CCCCc1nc(CN2CCCC(C(=O)c3ccc(SC)cc3)C2)c[nH]1` (stereo not drawn) as the molecule, how does the EC50 [2] read?
The EC50 was 1.88 µM (active).

With `CCOC(=O)C1CCCN(S(=O)(=O)c2ccc(OC)c3ccccc23)C1` (stereo not drawn) as the molecule, how does the EC50 [7] read?
Its EC50 is 0.647 µM (active).

For `COc1ccc(/C=c2\s/c(=C/C(=O)c3ccc(C)cc3)[nH]c2=O)c(OC)c1`, which EC50 [9] is on record?
The EC50 was > 99 µM (inactive).

What about the IC50 [4] of the same molecule?
Its IC50 is 1.76 µM (active).

What about the EC50 [10] of the same molecule?
The EC50 was > 99 µM (inactive).

And the EC50 [11]?
Its EC50 is 10.7 µM (active).

With `COc1ccc(C(=O)Nc2cc(Cl)ccc2O)cc1` as the molecule, how does the IC50 (Hexokinase) read?
Its IC50 is 25 µM (inactive).

For `O=C(Nc1cc(Cl)ccc1C(=O)O)c1ccc(Cc2ccccc2)cc1`, which IC50 (Hexokinase) is on record?
The IC50 was 13.6 µM (active).

Which results are given for `CN(C)CCN(C(=O)C1CCCCC1)c1nc2cc3c(cc2s1)OCO3`?
EC50 [1]: 6.68 µM (active); EC50 [2]: 2.66 µM (active)
